Converted amounts (≈) assume the structure as drawn.
Experiments:
Assay in all cases: MIC, Staphylococcus panel (Table I-2)
Format in all cases: cell-based
[1] = tested on: Staphylococcus epidermidis ATCC 49461; conditions: ATCC49461, 18 h, 4% DMSO
Experimental: (§1) We used the previously described protocol, with subtle modifications. The microdilution method recommended by the Clinical and Laboratory Standard Institute [M07-A9, Vol. 32, N^o 2] was used. The activity of bis-indolic compounds was tested against 35 bacterial strains belonging to 12 different Staphylococcus species.
(§2) Bacterial inocula were prepared in Mueller Hinton broth (MH2, BioMerieux, Marcy L'Etoile, France). They were dispensed in 96 well microtiter plates (5×10^5 CFU/ml of final inoculum, 192 μL per well). Indolic compounds diluted in pure DMSO (8 μL per well, concentrated 25 times) were added to the wells as to obtain two-fold serial concentrations (0.5-32 mg/L of final concentrations). The final concentration of DMSO was 4% in each well.
(§3) To avoid cross-contaminations in microtiter plates, one row was left blank between each strain tested. Microplates were incubated for 18 h at 37° C. in ambient air or at 37° C. in 5% CO2 enriched atmosphere for fastidious species. Then MICs were read visually and, in case of visual reading difficulties, confirmed using a spectrophotometer at a wavelength of 630 nm (BioTek® EL808 Absorbance Microplate Reader). MICs corresponded to the minimum bis-indolic compound concentration that allowed complete visual growth inhibition of bacteria. Drug-free cultures served as growth controls.
(§4) Coagulase-negative Staphylococcus strains included three reference strains purchased from CRBIP: a methicillin-susceptible S. epidermidis strain (ATCC 12228), a methicillin-resistant S. epidermidis strain (ATCC 49461), and a methicillin-susceptible S. sciuri strain (ATCC 29061). We also used clinical strains belonging to the following coagulase-negative Staphylococcus species: S. auricularis (two strains), S. warneri (five strains), S. capitis (five strains), S. haemolyticus (four strains), S. hominis (seven strains), S. cohnii (two strains), and S. saprophyticus, S. caprae and S. simulans (one strain each). Identification of the clinical strains was obtained using VITEK® 2 System (Biomérieux).

[2] = tested on: Staphylococcus warneri (CHUG-Swar7); conditions: 18 h, 4% DMSO
Experimental: as §1, §2, §3, §4

[3] = tested on: Staphylococcus hominis (CHUG-Shom7); conditions: 18 h, 4% DMSO
Experimental: as §1, §2, §3, §4

[4] = tested on: Staphylococcus sciuri ATCC 29061; conditions: Mammaliicoccus sciuri, ATCC29061, 18 h, 4% DMSO
Experimental: as §1, §2, §3, §4

[5] = tested on: Staphylococcus hominis (CHUG-Shom1); conditions: 18 h, 4% DMSO
Experimental: as §1, §2, §3, §4

[6] = tested on: Staphylococcus haemolyticus (CHUG-Shae1); conditions: 18 h, 4% DMSO
Experimental: as §1, §2, §3, §4

[7] = tested on: Staphylococcus saprophyticus (CHUG-Ssap2); conditions: 18 h, 4% DMSO
Experimental: as §1, §2, §3, §4

[8] = tested on: Staphylococcus cohnii (CHUG-Scoh2); conditions: 18 h, 4% DMSO
Experimental: as §1, §2, §3, §4

[9] = tested on: Staphylococcus cohnii (CHUG-Scoh1) (MRSA); conditions: 18 h, 4% DMSO
Experimental: as §1, §2, §3, §4

[10] = tested on: Staphylococcus capitis (CHUG-Scap1); conditions: 18 h, 4% DMSO
Experimental: as §1, §2, §3, §4

[11] = tested on: Staphylococcus simulans (CHUG-Ssim1); conditions: 18 h, 4% DMSO
Experimental: as §1, §2, §3, §4

[12] = tested on: Staphylococcus warneri (CHUG-Swar4); conditions: 18 h, 4% DMSO
Experimental: as §1, §2, §3, §4

[13] = tested on: Staphylococcus hominis (CHUG-Shom6); conditions: 18 h, 4% DMSO
Experimental: as §1, §2, §3, §4

[14] = tested on: Staphylococcus capitis (CHUG-Scap5); conditions: 18 h, 4% DMSO
Experimental: as §1, §2, §3, §4

[15] = tested on: Staphylococcus epidermidis ATCC 12228; conditions: ATCC12228, 18 h, 4% DMSO
Experimental: as §1, §2, §3, §4

[16] = tested on: Staphylococcus hominis (CHUG-Shom5); conditions: 18 h, 4% DMSO
Experimental: as §1, §2, §3, §4

[17] = tested on: Staphylococcus warneri (CHUG-Swar1); conditions: 18 h, 4% DMSO
Experimental: as §1, §2, §3, §4

[18] = tested on: Staphylococcus haemolyticus (CHUG-Scap5); conditions: 18 h, 4% DMSO
Experimental: as §1, §2, §3, §4

[19] = tested on: Staphylococcus warneri (CHUG-Swar5); conditions: 18 h, 4% DMSO
Experimental: as §1, §2, §3, §4

[20] = tested on: Staphylococcus warneri (CHUG-Swar6); conditions: 18 h, 4% DMSO
Experimental: as §1, §2, §3, §4

[21] = tested on: Staphylococcus auricularis (CHUG-Saur1); conditions: 18 h, 4% DMSO
Experimental: as §1, §2, §3, §4

[22] = tested on: Staphylococcus haemolyticus (CHUG-Scap4); conditions: 18 h, 4% DMSO
Experimental: as §1, §2, §3, §4

[23] = tested on: Staphylococcus capitis (CHUG-Scap7); conditions: 18 h, 4% DMSO
Experimental: as §1, §2, §3, §4

[24] = tested on: Staphylococcus hominis (CHUG-Shom4); conditions: 18 h, 4% DMSO
Experimental: as §1, §2, §3, §4

[25] = tested on: Staphylococcus hominis (CHUG-Shom3); conditions: 18 h, 4% DMSO
Experimental: as §1, §2, §3, §4

[26] = tested on: Staphylococcus haemolyticus (CHUG-Scap6); conditions: 18 h, 4% DMSO
Experimental: as §1, §2, §3, §4

[27] = tested on: Staphylococcus capitis (CHUG-Scap4); conditions: 18 h, 4% DMSO
Experimental: as §1, §2, §3, §4

[28] = tested on: Staphylococcus caprae (CHUG-Scapra1); conditions: 18 h, 4% DMSO
Experimental: as §1, §2, §3, §4

[29] = tested on: Staphylococcus capitis (CHUG-Scap6); conditions: 18 h, 4% DMSO
Experimental: as §1, §2, §3, §4

[30] = tested on: Staphylococcus hominis (CHUG-Shom8); conditions: 18 h, 4% DMSO
Experimental: as §1, §2, §3, §4

[31] = tested on: Staphylococcus auricularis (CHUG-Saur3); conditions: 18 h, 4% DMSO
Experimental: as §1, §2, §3, §4

## CC(C)(C)OC(=O)NCC(NC(=O)C(=O)c1c[nH]c2ccc(Br)cc12)c1c[nH]c2ccc(Br)cc12 (centres unmarked) [Compound 4, tert-Butyl(2-(5-bromo-1H-indol-3-yl)-2-(2-(5-bromo-1H-indol-3-yl)-2-oxoacetamido)ethyl) carbamate]
[1]
  MIC: 1 µg/mL (≈ 1.65 µM)
[2]
  MIC: 1 µg/mL (≈ 1.65 µM)
[3]
  MIC: 1 µg/mL (≈ 1.65 µM)
[4]
  MIC: 2 µg/mL (≈ 3.31 µM)
[5]
  MIC: 2 µg/mL (≈ 3.31 µM)
[6]
  MIC: 1 µg/mL (≈ 1.65 µM)
[7]
  MIC: 1 µg/mL (≈ 1.65 µM)
[8]
  MIC: 2 µg/mL (≈ 3.31 µM)
[9]
  MIC: 1 µg/mL (≈ 1.65 µM)
[10]
  MIC: 1 µg/mL (≈ 1.65 µM)
[11]
  MIC: 1 µg/mL (≈ 1.65 µM)
[12]
  MIC: 1 µg/mL (≈ 1.65 µM)
[13]
  MIC: 1 µg/mL (≈ 1.65 µM)
[14]
  MIC: 1 µg/mL (≈ 1.65 µM)
[15]
  MIC: 1 µg/mL (≈ 1.65 µM)
[16]
  MIC: 1 µg/mL (≈ 1.65 µM)
[17]
  MIC: 1 µg/mL (≈ 1.65 µM)
[18]
  MIC: 1 µg/mL (≈ 1.65 µM)
[19]
  MIC: 1 µg/mL (≈ 1.65 µM)
[20]
  MIC: 1 µg/mL (≈ 1.65 µM)
[21]
  MIC: 1 µg/mL (≈ 1.65 µM)
[22]
  MIC: 2 µg/mL (≈ 3.31 µM)
[23]
  MIC: 1 µg/mL (≈ 1.65 µM)
[24]
  MIC: 1 µg/mL (≈ 1.65 µM)
[25]
  MIC: 1 µg/mL (≈ 1.65 µM)
[26]
  MIC: 2 µg/mL (≈ 3.31 µM)
[27]
  MIC: 1 µg/mL (≈ 1.65 µM)
[28]
  MIC: 1 µg/mL (≈ 1.65 µM)
[29]
  MIC: 1 µg/mL (≈ 1.65 µM)
[30]
  MIC: 1 µg/mL (≈ 1.65 µM)
[31]
  MIC: 1 µg/mL (≈ 1.65 µM)

## CC(NC(=O)C(=O)c1c[nH]c2ccc(Br)cc12)c1c[nH]c2ccc(Br)cc12 (centres unmarked) [Compound 5, 2-(5-Bromo-1H-indol-3-yl)-N-(1-(5-bromo-1H-indol-3-yl)ethyl)-2-oxoacetamide]
[1]
  MIC: 2 µg/mL (≈ 4.09 µM)
[2]
  MIC: 2 µg/mL (≈ 4.09 µM)
[3]
  MIC: 2 µg/mL (≈ 4.09 µM)
[4]
  MIC: 4 µg/mL (≈ 8.18 µM)
[5]
  MIC: 4 µg/mL (≈ 8.18 µM)
[6]
  MIC: 4 µg/mL (≈ 8.18 µM)
[7]
  MIC: 2 µg/mL (≈ 4.09 µM)
[8]
  MIC: 2 µg/mL (≈ 4.09 µM)
[9]
  MIC: 2 µg/mL (≈ 4.09 µM)
[10]
  MIC: 2 µg/mL (≈ 4.09 µM)
[11]
  MIC: 2 µg/mL (≈ 4.09 µM)
[12]
  MIC: 2 µg/mL (≈ 4.09 µM)
[13]
  MIC: 2 µg/mL (≈ 4.09 µM)
[14]
  MIC: 2 µg/mL (≈ 4.09 µM)
[15]
  MIC: 2 µg/mL (≈ 4.09 µM)
[16]
  MIC: 1 µg/mL (≈ 2.04 µM)
[17]
  MIC: 2 µg/mL (≈ 4.09 µM)
[18]
  MIC: 4 µg/mL (≈ 8.18 µM)
[19]
  MIC: 1 µg/mL (≈ 2.04 µM)
[20]
  MIC: 2 µg/mL (≈ 4.09 µM)
[21]
  MIC: 1 µg/mL (≈ 2.04 µM)
[22]
  MIC: 4 µg/mL (≈ 8.18 µM)
[23]
  MIC: 2 µg/mL (≈ 4.09 µM)
[24]
  MIC: 2 µg/mL (≈ 4.09 µM)
[25]
  MIC: 2 µg/mL (≈ 4.09 µM)
[26]
  MIC: 4 µg/mL (≈ 8.18 µM)
[27]
  MIC: 1 µg/mL (≈ 2.04 µM)
[28]
  MIC: 2 µg/mL (≈ 4.09 µM)
[29]
  MIC: 1 µg/mL (≈ 2.04 µM)
[30]
  MIC: 2 µg/mL (≈ 4.09 µM)
[31]
  MIC: 1 µg/mL (≈ 2.04 µM)

Source: US9321722B2, “Bis-indolic derivatives, their uses in particular as antibacterials” (UNIVERSITE JOSEPH FOURIER, priority 2011, dated 2016)
